The assay has as its system monosodium urate (MSU) crystal-induced air pouch inflammation. The experiment in a line: Air Pouch Model 3: MSU crystal air pouch, rodent model of gout. The format is in vivo, male Sprague-Dawley rats. To be noted: 30 min before MSU; for Average Exudate Volume, Mean / Average Plasma Extravasation, OD620 nm, Mean / Total WBC in Sample, Mean / WBC in exudate, Mean: 4 h after MSU. Here is the method: The objective of this study was to evaluate the anti-inflammatory potency of Tranilast. This evaluation was carried out in male Sprague-Dawley rats in a rodent model of gout. The animals were injected subcutaneously with 20 ml of sterile air, followed three days later by a supplemental injection with 20 ml of sterile air. Six days after the initial sterile air injection, the rats were injected intravenously with Evan's Blue and pretreated for thirty minutes with oral administration of 25 mg/kg, 50 mg/kg, 100 mg/kg, 200 mg/kg, or 300 mg/kg tranilast. After the pretreatment period, the rats were injected with 150 mg of monosodium urate (MSU) crystals (10 mg/ml) into the air pouch. Four hours later, the air pouch was injected with 5 ml heparinized saline and the entire contents of the air pouch removed, recording the total volume. The air pouch contents were evaluated for plasma extravasation and total white blood cell (WBC) count.
On day 0 the rats were anesthetized in a biological cabinet, the nape of the neck was cleansed with 70% isopropanol followed by iodine tincture (VEDCO). Twenty ml sterile (0.22 μm, Millipore, Cat. SLGSV255F) air was injected subcutaneously using a 23 G×2 inch needle fixed to a 20 ml syringe. The rats were returned to routine housing. No adverse reactions were observed.
On day 3 the rats were anesthetized in a biological cabinet, the nape of the neck was cleansed with 70% isopropanol followed by iodine tincture (VEDCO). Twenty ml sterile (0.22 μm, Fisher Scientific, Cat. 09-720-3) air was injected subcutaneously using a 23 G×2 inch needle fixed to a 20 ml syringe. The rats were returned to routine housing. No adverse reactions were observed.
On day 6 the rats were weighed (Mettler, Model PE3000, SN: F69474) and injected intravenously injected with 2 ml/kg Evans Blue. The animals were dosed orally with 0.5 ml/kg, 1 ml/kg, 2 ml/kg, 4 ml/kg tranilast, or 6 ml/kg tranilast or 6 ml/kg vehicle.
Thirty minutes after test material administration, the rats were anesthetized and six groups (2-7) were injected into the air pouch with 15 ml MSU using a 19 G×2 inch needle fitted to a 20 ml syringe. Group 1 was injected with 15 ml saline. The rats were returned to their cages, no adverse affects were observed.
Four hours after MSU/saline injection, the rats were anesthetized and 5 ml 10 U/ml heparinized saline was injected into the air pouch. The air pouch was gently massaged, the contents immediately removed using a 14 G×1 inch needle fitted to a 6 ml syringe, and the exudate volume recorded. An aliquot of the exudate was transferred to heparin-treated microtainer tubes (Becton Dickinson, Cat. 365958) for white blood cell (WBC) counting. The remainder of the exudate was centrifuged (Hermle Labrotechnik, Model Z200A, SN: 44060036), the supernatants removed and evaluated at OD620nm (Spectronic Unicam, Model 4000 1/4, SN: 3SGD003006) for plasma extravasation.

For the compound `COc1ccc(/C=C/C(=O)Nc2ccccc2C(=O)O)cc1OC` [Tranilast, 2-[[3-(3,4-dimethoxyphenyl)-1-oxo-2-propenyl]amino]benzoic acid], where the note is “25 mg/kg oral”, the “Average Exudate Volume, Mean” value was 6.9 mL; the “Average Plasma Extravasation, OD620 nm, Mean” value (from here on “Average Plasma Extravasation”) was found to be 1.181; the “Total WBC in Sample, Mean” value was determined as 204170000; the “WBC in exudate, Mean” value is 31260000 cells/ml. Where the note is “50 mg/kg oral”, the “Average Exudate Volume, Mean” value was 4.8 mL; the “Average Plasma Extravasation” value is reported as 1.071; the “Total WBC in Sample, Mean” value was 96948000; the “WBC in exudate, Mean” value is 18900000 cells/ml. In addition, under “100 mg/kg oral”, the “Average Exudate Volume, Mean” value was 6.4 mL; the “Average Plasma Extravasation” value amounted to 1.276; the “Total WBC in Sample, Mean” value is on record as 145408000; the “WBC in exudate, Mean” value is recorded as 27440000 cells/ml. In addition, under “200 mg/kg oral”, the “Average Exudate Volume, Mean” value is 6.2 mL; the “Average Plasma Extravasation” value was found to be 1.033; the “Total WBC in Sample, Mean” value is given as 71692000; the “WBC in exudate, Mean” value worked out at 12000000 cells/ml. Moreover, for the setting “300 mg/kg oral”, the “Average Exudate Volume, Mean” value turned out to be 5.6 mL; the “Average Plasma Extravasation” value was determined as 0.611; the “Total WBC in Sample, Mean” value was 29232000; the “WBC in exudate, Mean” value is 5880000 cells/ml. Under “highest dose 300 mg/kg oral”, the “inhibition of plasma extravasation” value came out at 65% and the “inhibition of white blood cell infiltration” value stood at 90%. Moreover, the “effect on MSU-induced parameters (plasma extravasation, leukocyte infiltration)” value (oral 25-300 mg/kg) is given as “dose-dependent inhibition”.

These data come from US20100160351A1, “PHARMACEUTICAL COMPOSITIONS AND METHODS FOR TREATING HYPERURICEMIA AND RELATED DISORDERS” (NUON THERAPEUTICS, INC., priority 2008, published 2010).
